Source: patent US10626103B2, “Inhibitor of lysine specific demethylase-1” (CELGENE QUANTICEL RESEARCH, INC., priority 2014, dated 2020)

Legend:
[1] = system: CD11b expression in THP-1 (AML) cells; assay: LSD1 CD11b cellular assay (flow cytometry); assay type: cell-based; conditions: THP-1 cells, 4 days
Method: To analyze LSD1 inhibitor efficacy in cells, a CDL11b flow cytometry assay was performed. LSD1 inhibition induces CD11b expression in THP-1 (AML) cells which can be measured by flow cytometry. […] LSD 1 test compounds were serially diluted in DMSO. The dilutions were added to each well accordingly to a final concentration of 0.2% DMSO. The cells were incubated at 37 degrees Celsius in 5% CO2 for 4 days. 250 μL of each well was transferred to a well in a 96 well round bottom plate. The plate was centrifuged at 1200 rpm at 4 degrees Celsius in a Beckman Coulter Alegra 6KR centrifuge for 5 minutes. The media was removed leaving the cells at the bottom of the wells. The cells were washed in 100 μL cold HBSS (Hank's Balanced Salt Solution) plus 2% BSA (Bovine Serum Albumin) solution and centrifuged at 1200 rpm at 4 degrees Celsius for 5 minutes. The wash was removed. […] The cells were centrifuged and washed two times in 100 μl HBSS plus 2% BSA. After the final spin the cells were resuspended in 100 μL HBSS plus 2% BSA containing 1 ug/mL DAPI (4′,6-diamidino-2-phenylindole). The cells were then analyzed by flow cytometry in a BD FACSAria machine. Cells were analyzed for CD11b expression. The percent of CD11b expressing cells for each inhibitor concentration was used to determine an IC50 curve for each compound analyzed.

[2] = target: full-length human LSD1 (Homo sapiens (Human), UniProt O60341); assay: In vitro enzyme inhibition assay LSD-1 (TR-FRET); assay type: biochemical; conditions: H3K4me1-biotin peptide
Method: This assay determines the ability of a test compound to inhibit LSD1 demethylase activity.
The enzymatic assay of LSD1 activity is based on Time Resolved-Fluorescence Resonance Energy Transfer (TR-FRET) detection.
Plates were read by EnVision Multilabel Reader in TR-FRET mode (excitation at 320 nm, emission at 615 nm and 665 nm) after 1 hour incubation at room temperature.
The ability of the compounds disclosed herein to inhibit LSD1 activity was quantified and the respective IC50 value was determined.

Compound | IC50 ([1]; Homo sapiens, 96 h) [µM] | IC50 [2] [µM] | IC50 [1] [µM]
CN(C)[C@H]1CCN(C(=O)c2nc(-c3ccc(C#N)c(F)c3)n(-c3ccc4nn(C)cc4c3)c2Cl)C1 [Example 100, 4-[5-Chloro-4-[(3S)-3-(dimethylamino)pyrrolidine-1-carbonyl]-1-(2-methylindazol-5-yl)imidazol-2-yl]-2-fluorobenzonitrile] | 0.1 to 1 | < 0.1 | –
CN[C@H]1CCN(C(=O)c2nc(-c3ccc(C#N)c(F)c3)n(-c3cc(F)c4nn(C)cc4c3)c2C)C1 [Example 51, 2-Fluoro-4-[1-(7-fluoro-2-methylindazol-5-yl)-5-methyl-4-[(3S)-3-(methylamino)pyrrolidine-1-carbonyl]imidazol-2-yl]benzonitrile] | < 0.1 | < 0.1 | –
CN[C@@H]1CCCN(C(=O)c2cn(-c3ccc(OC)cc3)c(-c3ccc(C#N)c(F)c3)n2)C1 [Example 72, 2-Fluoro-4-[1-(4-methoxyphenyl)-4-[(3R)-3-(methylamino)piperidine-1-carbonyl]imidazol-2-yl]benzonitrile] | < 0.1 | < 0.1 | –
CN[C@H]1CCCN(C(=O)c2cn(-c3ccc4nn(C)c(Cl)c4c3)c(-c3ccc(C#N)c(F)c3)n2)C1 [Example 116, 4-[1-(3-Chloro-2-methylindazol-5-yl)-4-[(3S)-3-(methylamino)piperidine-1-carbonyl]imidazol-2-yl]-2-fluorobenzonitrile] | < 0.1 | < 0.1 | –
CN(C)[C@H]1CCN(C(=O)c2nc(-c3ccc(C#N)c(F)c3)n(-c3ccc4nn(C)c(Cl)c4c3)c2F)C1 [Example 58, 4-[1-(3-Chloro-2-methylindazol-5-yl)-4-[(3S)-3-(dimethylamino)pyrrolidine-1-carbonyl]-5-fluoroimidazol-2-yl]-2-fluorobenzonitrile] | < 0.1 | < 0.1 | –
COc1ccc(-c2c(-c3ccc(C#N)cc3)cc(C(=O)N3CCC[C@@H](N)C3)n2CCO)cc1 [Example 7, 4-[5-(3-(R)-amino-piperidine-1-carbonyl)-1-(2-hydroxy-ethyl)-2-(4-methoxy-phenyl)-1H-pyrrol-3-yl]-benzonitrile] | < 0.1 | < 0.1 | –
N#Cc1ccc(-c2nc(C(=O)N3CC[C@H](N)C3)c(Cl)n2-c2ccc(C3CC3)nc2)cc1F [Example 81, 4-[4-[(3S)-3-Aminopyrrolidine-1-carbonyl]-5-chloro-1-(6-cyclopropylpyridin-3-yl)imidazol-2-yl]-2-fluorobenzonitrile] | < 0.1 | < 0.1 | –
Cn1cc2cc(-n3c(-c4ccc(C#N)c(F)c4)nc(C(=O)N4CCC[C@@H](N)C4)c3F)ccc2n1 [Example 77, 4-[4-[(3R)-3-Aminopiperidine-1-carbonyl]-5-fluoro-1-(2-methylindazol-5-yl)imidazol-2-yl]-2-fluorobenzonitrile] | < 0.1 | < 0.1 | –
Cc1ccc(-c2c(-c3ccc(C#N)c(F)c3)cc(C(=O)N3CCC[C@@H](N)C3)n2CCCO)cc1 [Example 9] | < 0.1 | < 0.1 | –
COc1ccc(-c2c(-c3ccc(C#N)c(F)c3)cc(C(=O)N3CCC[C@@H](N)C3)n2CC(N)=O)cc1 [Example 37, (R)-2-(5-(3-aminopiperidine-1-carbonyl)-3-(4-cyano-3-fluorophenyl)-2-(4-methoxyphenyl)-1H-pyrrol-1-yl)acetamide] | – | < 0.1 | –
Cc1c(C(=O)N2CCC[C@@H](N)C2)nc(-c2ccc(C#N)c(F)c2)n1-c1cc2cn(C)nc2cc1F [Example 47, 4-[4-[(3R)-3-Aminopiperidine-1-carbonyl]-1-(6-fluoro-2-methylindazol-5-yl)-5-methylimidazol-2-yl]-2-fluorobenzonitrile] | < 0.1 | < 0.1 | –
CN(C)[C@H]1CCN(C(=O)c2nc(-c3ccc(C#N)c(F)c3)n(-c3ccc4nn(C)c(Cl)c4c3)c2Cl)C1 [Example 101, 4-[5-Chloro-1-(3-chloro-2-methylindazol-5-yl)-4-[(3S)-3-(dimethylamino)pyrrolidine-1-carbonyl]imidazol-2-yl]-2-fluorobenzonitrile] | < 0.1 | < 0.1 | –
Cn1cc2cc(-c3c(-c4ccc(C#N)c(F)c4)cc(C(=O)N4CCC[C@@H](N)C4)n3CCO)ccc2n1 [Example 35, (R)-4-(5-(3-aminopiperidine-1-carbonyl)-1-(2-hydroxyethyl)-2-(2-methyl-2H-indazol-5-yl)-1H-pyrrol-3-yl)-2-fluorobenzonitrile] | < 0.1 | < 0.1 | –
CN[C@H]1CCN(C(=O)c2cn(-c3ccc4nn(C)c(Cl)c4c3)c(-c3ccc(C#N)c(F)c3)n2)C1 [Example 113, 4-[1-(3-Chloro-2-methylindazol-5-yl)-4-[(3S)-3-(methylamino)pyrrolidine-1-carbonyl]imidazol-2-yl]-2-fluorobenzonitrile] | < 0.1 | < 0.1 | –
CN1CCC[C@@H](NC(=O)c2cn(-c3ccc4nn(C)c(Cl)c4c3)c(-c3ccc(C#N)c(F)c3)n2)C1 [Example 59, 1-(3-Chloro-2-methylindazol-5-yl)-2-(4-cyano-3-fluorophenyl)-N-[(3R)-1-methylpiperidin-3-yl]imidazole-4-carboxamide] | < 0.1 | < 0.1 | –
Cc1ccc(-c2c(-c3ccc(C#N)cc3)cc(C(=O)N3CCC[C@@H](N)C3)n2CCO)cc1 [Example 3, 4-[5-(3-(R)-amino-piperidine-1-carbonyl)-1-(2-hydroxy-ethyl)-2-p-tolyl-1H-pyrrol-3-yl]-benzonitrile] | < 0.1 | < 0.1 | –
Cn1cc2cc(-c3c(-c4ccc(C#N)c(F)c4)cc(C(=O)N4CCC[C@@H](N)C4)n3C)ccc2n1 [Example 29, 4-{5-[((3R)-3-aminopiperidyl)carbonyl]-1-methyl-2-(2-methyl(2H-indazol-5-yl))pyrrol-3-yl}-2-fluorobenzenecarbonitrile] | < 0.1 | < 0.1 | –
CN1CC[C@@H](NC(=O)c2cn(-c3ccc4nn(C)c(Cl)c4c3)c(-c3ccc(C#N)c(F)c3)n2)C1 [Example 106, 1-(3-Chloro-2-methylindazol-5-yl)-2-(4-cyano-3-fluorophenyl)-N-[(3R)-1-methylpyrrolidin-3-yl]imidazole-4-carboxamide] | – | < 0.1 | –
CN1CC[C@H](NC(=O)c2cn(-c3ccc4nn(C)c(Cl)c4c3)c(-c3ccc(C#N)c(F)c3)n2)C1 [Example 107, 1-(3-Chloro-2-methylindazol-5-yl)-2-(4-cyano-3-fluorophenyl)-N-[(3S)-1-methylpyrrolidin-3-yl]imidazole-4-carboxamide] | – | < 0.1 | –
Cc1c(C(=O)N[C@@H]2CCN(C)C2)nc(-c2ccc(C#N)c(F)c2)n1-c1ccc2nn(C)cc2c1 [Example 108, 2-(4-Cyano-3-fluorophenyl)-5-methyl-1-(2-methylindazol-5-yl)-N-[(3R)-1-methylpyrrolidin-3-yl]imidazole-4-carboxamide] | – | < 0.1 | –
Cn1ncc2cc(-n3cc(C(=O)N4CC[C@H](N)C4)nc3-c3ccc(C#N)c(F)c3)ccc21 [Example 28, 4-[4-[(3S)-3-aminopyrrolidine-1-carbonyl]-1-(1-methylindazol-5-yl)imidazol-2-yl]-2-fluorobenzonitrile] | – | < 0.1 | –
Cn1ncc2cc(-n3cc(C(=O)N4CCC[C@@H](N)C4)nc3-c3ccc(C#N)c(F)c3)ccc21 [Example 27, 4-[4-[(3R)-3-aminopiperidine-1-carbonyl]-1-(1-methylindazol-5-yl)imidazol-2-yl]-2-fluorobenzonitrile] | – | < 0.1 | –
COc1ccc(-c2c(-c3ccc(C#N)c(F)c3)cc(C(=O)N3CCC[C@@H](N)C3)n2CCCC(=O)O)cc1 [Example 41, 4-{5-[((3R)-3-aminopiperidyl)carbonyl]-3-(4-cyano-3-fluorophenyl)-2-(4-methoxyphenyl)pyrrolyl}butanoic acid] | 0.1 to 1 | – | –
Cc1c(C(=O)N[C@H]2CCN(C)C2)nc(-c2ccc(C#N)c(F)c2)n1-c1ccc2nn(C)cc2c1 [Example 109, 2-(4-Cyano-3-fluorophenyl)-5-methyl-1-(2-methylindazol-5-yl)-N-[(3S)-1-methylpyrrolidin-3-yl]imidazole-4-carboxamide] | – | < 0.1 | –
Cn1cc2cc(-c3c(-c4ccc(C#N)c(F)c4)cc(C(=O)NCC4CCNC4)n3C)ccc2n1 (stereo in doubt) [Example 33, N-[((3S)pyrrolidin-3-yl)methyl][4-(4-cyano-3-fluorophenyl)-1-methyl-5-(2-methyl(2H-indazol-5-yl))pyrrol-2-yl]carboxamide] | – | – | < 0.1
Cn1cc2cc(-n3cc(C(=O)N4CC[C@H](N)C4)nc3-c3ccc(C#N)c(F)c3)ccc2n1 [Example 26, 4-[4-[(3S)-3-aminopyrrolidine-1-carbonyl]-1-(2-methylindazol-5-yl)imidazol-2-yl]-2-fluorobenzonitrile] | – | < 0.1 | –
Cn1cc2cc(-n3cc(C(=O)N4CCC[C@@H](N)C4)nc3-c3ccc(C#N)c(F)c3)ccc2n1 [Example 25, 4-[4-[(3R)-3-aminopiperidine-1-carbonyl]-1-(2-methylindazol-5-yl)imidazol-2-yl]-2-fluorobenzonitrile] | – | < 0.1 | –
